Key:
BT-549 cells [1] = assay: Cell viability (MTT) assay, anti-proliferative activity; type: cell-based; conditions: for IC50: Homo sapiens, MTT, 24 h, mean ± SD
Protocol: BT-549 cells were seeded at a density of 5 × 10^4 cells/ml in a 96-well plate. Following a 24-h incubation period, the cells were exposed to various concentrations of different compounds for the specified durations. Cell viability was evaluated using an MTT assay.

ATAD2 = conditions: cited from earlier work
MDA-MB-231 cells [2] = system: MDA-MB-231 cells; set-up: method as in PMID 32174193; conditions: read-out: antiproliferative activity IC50 in MDA-MB-231 cells; cited from earlier work
[3] = molecular target: T1, ATAD2 recombinant bromodomain protein (Homo sapiens, UniProt Q6PL18); assay: ATAD2 enzymatic assay by TR-FRET technology; type: binding; conditions: TR-FRET; for IC50: mean ± SD, read-out: Kinase inhibitory activity (IC50, μM) ATAD2
T1 sequence (Q6PL18 980-1092 limits assumed): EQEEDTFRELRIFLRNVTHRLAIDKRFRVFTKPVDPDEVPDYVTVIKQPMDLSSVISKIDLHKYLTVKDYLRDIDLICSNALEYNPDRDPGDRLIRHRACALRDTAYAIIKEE
Protocol: The assay was performed by TR-FRET technology using recombinant bromodomain and BET Ligand[8]. The compounds were diluted with indicated folds in 5% DMSO in reaction buffer and 2 µl of the dilution was added to a 20 µl reaction so that the final concentration of DMSO is 0.5% in all of the reactions. The 20 µl reaction mixture consists of the ATAD2 recombinant bromodomain protein, the indicated amount of the inhibitor, ligand, and the reactive dyes. The reaction mixture was incubated for 3 h before reading the TR-FRET signal. Fluorescence signals for both the donor and acceptor dyes were measured using a Tecan Infinite M1000 plate reader. Binding experiments were performed in duplicate at each concentration and the data were analysed using GraphPad Prism.

[4] = system: ATAD2, c-Myc, and p-c-Myc^Ser62 in BT-549 cells; assay: Western blot of ATAD2, c-Myc and p-c-Myc Ser62; type: cell-based; conditions: BT-549 cells, 5, 10, 20 μM, 48h
Protocol: (§1) Cells were exposed to AM879, BAY-850 or compound 19f for the specified time intervals. Both adherent and floating cells were harvested and subsequently resuspended in a lysis buffer, followed by incubation at 4 °C for 1 h. Following centrifugation at 12,000 rpm for 20 min, the protein content of the supernatant was quantified using the BCA protein assay. Then protein were separated by 8–15% SDS-PAGE and transferred onto PVDF membranes. The membranes were blocked with blocking buffer and subjected to primary antibody incubation, followed by incubation with HRP-conjugated secondary antibody. Protein detection was achieved using ECL as the HRP substrate.

MCF-10A cells = assay: Cell viability (Figure S1), normal breast cells; type: cell-based
[5] = system: p-c-Myc^Ser62 in BT-549 cells; assay: Immunofluorescence of p-c-Myc Ser62; type: cell-based; conditions: 48h
Protocol: To prevent non-specific antibody binding, BT-549 cells were treated with a blocking buffer (PBS +1.5% goat serum) prior to immunofluorescence staining. The cells were subsequently incubated with a p-c-Myc^Ser62 antibody (1:200) diluted in blocking buffer and allowed to incubate overnight at 4 °C. Afterward, the cells were further incubated with fluorescent-labelled secondary antibodies for 1 h at room temperature.

BT-549 cells [6] = assay: EdU-488 newly synthesised DNA assay; type: cell-based; conditions: BT-549 cells, 5, 10, 20 μM, 48h
BT-549 cells [7] = assay: Colony formation assay; type: cell-based
MDA-MB-231 cells [8] = assay: Cell viability (Figure S1); type: cell-based
BT-549 cells [9] = assay: Apoptosis assay, Annexin-V/PI double staining; type: cell-based; conditions: BT-549 cells, 5, 10, 20 μM, 48h
From the text: To assess apoptosis, BT-549 cells were exposed to varying concentrations of compound 19f, and apoptosis ratios were quantified via Annexin-V/PI double staining.

BT-549 cells [10] = assay: Wound healing assay; type: cell-based; conditions: BT-549 cells, 2.5, 5, 10, 20 μM, 48h
[11] = system: Bax, Bcl-2, Caspase-3, Caspase-8, Caspase-9, and PARP in BT-549 cells; assay: Western blot of apoptotic marker proteins; type: cell-based; conditions: BT-549 cells, 5, 10, 20 μM, 48h
Protocol: as §1

BT-549 cells [12] = assay: 3D cell culture, cell sphere diameter; type: cell-based
Protocol: For 3D cell culture, 10,000 cells were placed in 96-well spherical plates for 24h and treated with different concentrations of compound 19f, […] or AM879. The diameter of the cell balls was measured by photographing.

BT-549 cells [13] = assay: Transwell migration assay; type: cell-based; conditions: BT-549 cells, 5, 10, 20 μM, 48h
Protocol: BT-549 cells were seeded into the upper chamber of a Transwell insert at a density of 15,000 cells per well. The cells were treated with either DMSO or compound 19f for 48 h, after which non-migrated cells were removed from the upper surface, while the migrated cells were stained with crystal violet. Then, the cells were washed with PBS and imaged using a phase-contrast microscope.

[14] = system: MMP-2 and E-cadherin in BT-549 cells; assay: Western blot of migration markers; type: cell-based; conditions: BT-549 cells, 5, 10, 20 μM, 48h
Protocol: as §1

| SMILES | IC50 (BT-549 cells [1]) [µM] | IC50 (ATAD2) [nM] | IC50 [3] [µM] | expression levels of c-Myc and p-c-Myc Ser62 (western blot) [4] | expression of ATAD2 (western blot) [4] | other results |
| --- | --- | --- | --- | --- | --- | --- |
| CC1=C(C#N)c2nc(N)c(C#N)cc2/C1=C\c1ccc(-c2cc(C(=O)O)ccc2Cl)o1 [AM879] | 4.79 ± 0.52 | 3500 | 3.49 ± 0.77 | inhibited the expression levels of c-Myc and p-c-Myc^Ser62 in a dose-dependent manner | no significant effect on the expression of ATAD2 | IC50 (MDA-MB-231 cells [2]): 2430 nM |
| Cc1nnc2c(NC3CCN(CC(C)(C)F)CC3)cc(C(=O)N3C4Cc5ccccc5C3C(C(C)C)NC4=O)nn12 (centres unmarked) [AZ4347] |  | 20 |  |  |  |  |
| COc1cc(Cl)c(C(=O)N[C@@H](CN[C@H]2CC[C@@H](N)CC2)Cc2ccc(C#N)cc2)cc1-c1ccc(CN[C@H](C)c2ccc(C)cc2)o1 [BAY-850] | 3.45 ± 0.59 | 20 |  | reduced c-Myc expression and ser62 the phosphorylation at ser62 in a dose-dependent manner | inhibited the expression of ATAD2 |  |
| C[C@H]1CCN(S(=O)(=O)c2cc(NC(=O)CN3C(=O)N[C@@](C)(C4CC4)C3=O)ccc2Br)C1 [Compound 2] |  | 63 |  |  |  |  |
| COc1ccc(C(=O)NC2CCCC2)cc1NC(=O)Cn1cnc2c(=O)n(C)c(=O)n(C)c21 [Compound 19f, N-cyclopentyl-3–(2-(1,3-dimethyl-2,6-dioxo-1,2,3,6-tetrahydro-9H-purin-9-yl)acetamido)-4-methoxybenzamide] | 5.43 ± 0.71 |  | 0.27 ± 0.05 | inhibited the expression levels of c-Myc and p-c-Myc^Ser62 in a dose-dependent manner | no significant effect on the expression of ATAD2 | cytotoxicity to normal breast MCF-10A cells (MCF-10A cells): did not show obvious cytotoxicity; anti-proliferative activity in BT-549 cells, in words (BT-549 cells [1]): anti-proliferative activity comparable to BAY-850 and AM879; antiproliferative activity relative to the positive drug BAY-850 (BT-549 cells [1]): about one-fold weaker; p-c-Myc Ser62 level compared with AM879 and BAY-850 ([5]; BT-549 cells, 10 μM): more significant impact on p-c-Myc^Ser62 level than AM879, and a similar result to the BAY-850; fluorescence intensity of p-c-Myc Ser62 ([5]; BT-549 cells, 5, 10, 20 μM): reduce the fluorescence intensity of p-c-Myc^Ser62 in a dose-dependent manner; fluorescence intensity of EdU-488 (BT-549 cells [6]): reduce the fluorescence intensity of EdU-488 in a dose-dependent manner; colony formation ability (BT-549 cells [7]): inhibit the colony formation ability of BT-549 cells in a concentration-dependent manner; anti-proliferative activity in MDA-MB-231 cells, in words (MDA-MB-231 cells [8]): good anti-proliferative activity; apoptosis induction, in words (BT-549 cells [9]): induce obvious apoptosis in a dose-dependent manner; relative wound area (BT-549 cells [10]): increased the relative wound area in a dose-dependent manner; ATAD2 inhibitory activity, in words [3]: weaker ATAD2 inhibitory activity compared with BAY-850, but a stronger ATAD2 inhibitory activity than AM879; cleavage of caspase-8 [11]: the cleavage of caspase-8 was not changed significantly; expression of Bax, cleavage of caspase-3, caspase-9 and PARP [11]: promoted the expression of Bax, the cleavage of caspase-3, caspase-9 and PARP; expression of Bcl-2 [11]: the expression of Bcl-2 was significantly decreased; diameter of 3D tumour cell spheres (BT-549 cells [12]): dose-dependently reduce the diameter of the 3D tumour cell spheres; migrated cell number (BT-549 cells [13]): decreased the migrated cell number in a dose-dependent manner; expression of E-cadherin and MMP-2 [14]: up-regulated the expression of E-cadherin and down-regulated MMP-2 |
| COc1ccc(C(=O)NC2CCCCCC2)cc1NC(=O)Cn1cnc2c(=O)n(C)c(=O)n(C)c21 [Compound 19l, N-cycloheptyl-3–(2-(1,3-dimethyl-2,6-dioxo-1,2,3,6-tetrahydro-9H-purin-9-yl)acetamido)-4-methoxybenzamide] | > 30 |  | > 25 |  |  | melting point: 197 to 198 °C |
| CC(C)N1CCc2c(nnn2CC(=O)Nc2ccc(Br)c(S(=O)(=O)N3CC[C@H](C)C3)c2)C1 [GSK232] |  | 32 |  |  |  |  |
| CO[C@H]1CNC[C@@H](OCC2CCC(F)(F)CC2)[C@@H]1Nc1ncc(-c2cncc(C)c2)c2cc(C)c(=O)[nH]c12 [GSK8814] |  | 59 |  |  |  |  |

Reference: PMC10402865, “Fragment-based design, synthesis and biological evaluation of theophylline derivatives as ATAD2 inhibitors in BT-549 cells” (Journal of Enzyme Inhibition and Medicinal Chemistry, 2023)
